Reference: patent US20230357240A1, “NOVEL N-HETEROCYCLIC BET BROMODOMAIN INHIBITOR, AND PREPARATION METHOD THEREOF AND MEDICAL USE THEREOF” (Chengdu Easton Biopharmaceuticals Co., Ltd., priority 2020, published 2023)
Read-outs that look alike come from different tables or passages of the source.

Assays:
Format in all cases: cell-based
MV4-11 cell = MV4-11 cell proliferation experiment (CCK-8 cell viability); settings: Homo sapiens, MV4-11 cells, 72-hour culture
Method: EXAMPLE 9 Cell Experiment (MV4-11 Cell Proliferation Experiment)
Determination of Cell Viability with CCK-8 Reagent
(1) MV4-11 cell suspension was pipetted from a culture flask into a 15 mL centrifuge tube, and the cell suspension was centrifuged at 1000 rpm for 4 minutes.
(2) A supernatant in the centrifuge tube was discarded, and an appropriate amount of fresh complete medium (IMDM+10% FBS+1% P/S) was added to resuspend the cells. 20 μL of cell suspension was collected, 20 μL of trypan blue was added, and CounterStar was used for counting.
(3) A required cell suspension volume and complete medium volume were calculated according to viable cell density and the required number of plated cells. MV4-11 cells were plated at a density of 1*10^4 cells/well in 100 μL/well.
(4) 100 μL of the above cell suspension was pipetted into a 96-well plate by using an electric pipette. 150 μL of complete medium was added to blank control wells. PBS was added to peripheral wells of the 96-well plate, to avoid liquid evaporation. The 96-well plate was cultured overnight in an incubator.
Day 2: Compound Preparation:
(1) The compound of the present application dissolved in DMSO and the positive control substance ABBV-744 were fetched, and subjected to serial dilution (dilution in column A, column B, . . . , column J sequentially from left to right in a 96-well PCR plate).
An initial concentration of the solution in column A is 10 mM;
Column B: 2 μL of the solution in column A was diluted with 8 μL of DMSO to obtain a final concentration of 2000 μM;
Column C: 2 μL of the solution in column B was diluted with 8 μL of DMSO to obtain a final concentration of 400 μM;
Column D: 2 μL of the solution in column C was diluted with 8 μL of DMSO to obtain a final concentration of 80 μM;
Column E: 2 μL of the solution in column D was diluted with 8 μL of DMSO to obtain a final concentration of 16 μM;
Column F: 2 μL of the solution in column E was diluted with 8 μL of DMSO to obtain a final concentration of 3.2 μM;
Column G: 2 μL of the solution in column F was diluted with 8 μL of DMSO to obtain a final concentration of 0.64 μM;
Column H: 2 μL of the solution in column G was diluted with 8 μL of DMSO to obtain a final concentration of 0.128 μM;
Column I: 2 μL of the solution in column H was diluted with 8 μL of DMSO to obtain a final concentration of 0.0256 μM; and
Column J: 2 μL of the solution in column I was diluted with 8 μL of DMSO to obtain a final concentration of 0.00512 μM.
The suspension was centrifuged for 1 minute at 1000 rpm by using a low-speed centrifuge.
(2) 3×Compound Preparation: (Diluted in a 96-Well Cell Culture Plate)
3 μL of each of the solutions in columns B to J was pipetted into […] of complete medium by a 10 μL manual pipette to obtain 3×compound solutions with a final concentration of 30000, 6000, 1200, 240, 48, 9.6, 1.92, 0.384 and 0.0768 nM, respectively; and 3 μL of DMSO was pipetted into […] of complete medium as a control. The resulting 96-well cell culture plate was put on an oscillator to be oscillated at 500 rpm for 30 minutes.
(1) The prepared 3×compound solutions with the above concentrations were each pipetted by a manual pipette with its volume set to 50 μL into a corresponding well of the 96-well plate after overnight culture on the first day, and the total culture volume of each well was 150 μL. The final concentrations of the compounds in the 96-well plate were 10 μM, 2 μM, 400 nM, 80 nM, 16 nM, 3.2 nM, 0.64 nM, 0.128 nM and 0.0256 nM, respectively. The resulting 96-well plate was put on an oscillator to be oscillated at 500 rpm for 10 minutes.
(2) The 96-well plate as prepared was put in a CO2 incubator for 72-hour culture.
(1) CCK-8 test solution was pipetted into the 96-well cell culture plate in an amount of 15 μL/well by a pipette with a volume set to 15 μL.
(2) The 96-well plate was put in the CO2 incubator for 4-hour culture. […]

hERG = molecular target: T1, hERG (Homo sapiens, UniProt Q12809); test: hERG inhibition test, whole-cell patch clamp in HEK293 cells stably expressing the hERG ion channel; settings: human, HEK293 cells stably expressing the hERG ion channel
T1 construct: expressed in transfected cells; host or cells: HEK293 cells stably expressing hERG
Method: (§1) An hERG current was recorded by the whole-cell patch clamp technique. A suspension of HEK293 cells stably expressing the hERG ion channel was added to a 35 mm culture dish, and the culture dish was put on a stage of an inverted microscope. […] The pulse program was repeated every 15 seconds throughout the whole test. After the current became stable, the administration method of continuous extracellular perfusion from low concentration to high concentration was used, and the perfusion started from low concentration and continued until the drug effect was stable, and then the perfusion of the next concentration was performed.
(§2) After the test, stimulus release and signal acquisition were carried out through PatchMaster software. Graphpad Prism 8.0 was used for further data analysis and curve fitting. Effects of each compound at different concentrations were represented with an inhibition rate of the tail current. Inhibition rate=(peak tail current before administration—peak tail current after administration)/peak tail current before administration x 100%. Half-maximal inhibitory concentration IC50 of the test samples was obtained by the fitting analysis with Hill equation.

hERG ion channel = molecular target: T2, hERG ion channel (Homo sapiens, UniProt Q12809); test: as above; settings: tail current, Hill equation fit
T2 construct: expressed in transfected cells; host or cells: HEK293 cells stably expressing hERG
Method: as §1, §2

[1] = read-out: Average hERG inhibition rate
[2] = read-out: hERG Inhibition rate, Cell 1
[3] = read-out: hERG Inhibition rate, Cell 2

T1 sequence (Q12809 whole entry): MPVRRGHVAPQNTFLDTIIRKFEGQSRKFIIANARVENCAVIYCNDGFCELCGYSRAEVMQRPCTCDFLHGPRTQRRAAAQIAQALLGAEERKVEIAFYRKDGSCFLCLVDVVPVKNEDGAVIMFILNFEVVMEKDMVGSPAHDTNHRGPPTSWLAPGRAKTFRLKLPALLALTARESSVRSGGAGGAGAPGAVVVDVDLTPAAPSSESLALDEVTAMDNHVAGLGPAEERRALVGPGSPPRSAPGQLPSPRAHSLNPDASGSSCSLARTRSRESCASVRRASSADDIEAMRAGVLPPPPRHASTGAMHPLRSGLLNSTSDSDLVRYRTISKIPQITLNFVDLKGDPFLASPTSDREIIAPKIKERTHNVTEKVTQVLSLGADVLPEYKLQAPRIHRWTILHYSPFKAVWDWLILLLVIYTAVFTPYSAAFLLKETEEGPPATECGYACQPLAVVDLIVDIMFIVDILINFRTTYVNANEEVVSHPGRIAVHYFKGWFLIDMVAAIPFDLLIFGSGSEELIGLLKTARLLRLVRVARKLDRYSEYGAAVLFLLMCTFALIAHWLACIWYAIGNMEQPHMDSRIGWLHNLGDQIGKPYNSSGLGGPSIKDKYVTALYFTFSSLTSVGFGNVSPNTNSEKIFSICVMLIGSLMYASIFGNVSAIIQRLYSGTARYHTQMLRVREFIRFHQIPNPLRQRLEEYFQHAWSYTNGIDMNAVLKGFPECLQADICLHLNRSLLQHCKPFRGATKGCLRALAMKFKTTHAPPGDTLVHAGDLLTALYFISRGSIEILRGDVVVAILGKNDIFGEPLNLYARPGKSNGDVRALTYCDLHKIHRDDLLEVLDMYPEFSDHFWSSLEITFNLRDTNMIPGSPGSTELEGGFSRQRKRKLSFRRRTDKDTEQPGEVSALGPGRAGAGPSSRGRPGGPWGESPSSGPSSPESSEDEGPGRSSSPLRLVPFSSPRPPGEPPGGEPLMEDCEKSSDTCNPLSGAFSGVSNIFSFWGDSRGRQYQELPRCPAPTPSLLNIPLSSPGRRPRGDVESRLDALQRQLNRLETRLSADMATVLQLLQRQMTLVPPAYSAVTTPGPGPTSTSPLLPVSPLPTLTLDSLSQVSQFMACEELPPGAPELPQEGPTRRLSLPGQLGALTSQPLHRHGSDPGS
T2 sequence (Q12809 whole entry): as above

IC50 (MV4-11 cell): 0.00198 µM
Compound: CCNC(=O)c1cc2c(-c3sc(C(C)(C)O)cc3N3CCc4ccccc43)cn(C)c(=O)c2[nH]1 [Compound 1, N-ethyl-4-(5-(2-hydroxypropyl-2-yl)-3-(indolin-1-yl)thiophen-2-yl)-6-methyl-7-oxo-6,7-dihydro-1H-pyrrolo[2,3-c]pyridine-2-carboxamide]
inhibition at 0.37 µM (hERG; [1]): 3.89%
inhibition at 0.37 µM (hERG; [2]): 0.98%
inhibition at 0.37 µM (hERG; [3]): 6.79%
inhibition at 1.11 µM (hERG; [1]): 4.35%
inhibition at 1.11 µM (hERG; [2]): -0.28%
inhibition at 1.11 µM (hERG; [3]): 8.97%
inhibition at 3.33 µM (hERG; [1]): 10.1%
inhibition at 3.33 µM (hERG; [2]): 2.97%
inhibition at 3.33 µM (hERG; [3]): 17.3%
inhibition at 10 µM (hERG; [1]): 21.6%
inhibition at 10 µM (hERG; [2]): 14.6%
inhibition at 10 µM (hERG; [3]): 28.6%
inhibition at 30 µM (hERG; [1]): 56.3%
inhibition at 30 µM (hERG; [2]): 54.3%
inhibition at 30 µM (hERG; [3]): 58.3%
IC50 (hERG ion channel): 26.8 µM
